Results from US11400084B2 (BioTheryX, Inc., priority 2018, dated 2022).

Columns and labels:
Type in all cases: cell-based
[1] = tested on: MOLM-13 cells; experiment: MOLM-13 cell viability assay (CellTiter-Glo 2, 3 days, 2500 cells/well); conditions: Homo sapiens, MOLM-13, 72 h, percentage of DMSO control
Protocol: MOLM-13 cells were cultured in RPMI 1640 media supplemented with 10% fetal bovine serum, streptomycin and penicillin, and were plated in white walled 96-well plates at 2500 cells/well. Cells were incubated in DMSO (control) or the indicated compound for 3 days at 37° C. and 5% CO2. Following the incubation period, 100 μL of CellTiterGlow2 (CTG2) reagent (CellTiter-Glo®2 Luminescent Cell Viability Assay, Promega (Madison, Wis.)) was added to each well. Following a 10 minutes incubation with shaking, luminescence was measured using the EnVision Multimode plate reader.
The MOLM-13 cell viability values, measured as percentages of the DMSO control, are reported in Table 8 as “A”, “B”, “C”, or “D.” “A” represents a % viability value of less than 40% (value<40%). “B” represents a % viability value of equal to or more than 40% and less than 60% (40%≤value<60%). “C” represents a % viability value of equal to or more than 60% and less than 90% (60%≤value<90%). “D” represents a % viability value of equal or more than 90% (value≥90%).

[2] = tested on: IL-1β; experiment: IL-1β inhibition assay, LPS-induced PBMCs or CD14+ monocytes, Meso Scale; conditions: 100 ng/mL LPS 18-24 h
Protocol: (§1) Either frozen primary blood mononuclear cells (PBMCs) or frozen CD14+ mobilized peripheral blood monocytes were purchased from AllCells (PB003F, Normal Peripheral Blood MNC (Alameda, Calif.)). Cells were quick thawed, washed 1-time with RPMI-1640 (10% FBS/1% Pen-Strep) and plated in 96 well plates at 200,000 cells per well. Cells were pretreated with DMSO only or with the indicated compound for 1 h and then induced with 100 ng/mL lipopolysaccharide (LPS) for 18-24 h. The supernatant was analyzed for IL-1β, IL-6, and TNFα, using Meso Scale assay according to manufacturer's protocol. The negative control wells were treated with DMSO.

[3] = tested on: TNFα; experiment: TNF-α inhibition assay, LPS-induced PBMCs or CD14+ monocytes, Meso Scale; conditions: 100 ng/mL LPS 18-24 h
Protocol: as §1

[4] = tested on: IL-2; experiment: IL-2 fold-change assay, anti-CD3 stimulated PBMCs, Mesoscale; conditions: Homo sapiens, PBMC, 24 h, fold difference from the DMSO control
Protocol: For the IL-2 analysis, 96 well plates were precoated with 1 μg/mL anti-human CD3 antibody (OKT3, eBioscience Inc., San Diego, Calif.). After washing with PBS, the indicated compound was added (50 μL/well) followed by PBMCs diluted at 3-4 million cells/mL (150 μL/well). Plates were incubated for 24 h and the supernatants collected for Mesoscale IL-2 analysis. IL-2 activity is measured as fold difference from the DMSO control.
In Table 7, the fold-change values are reported as “A”, “B”, “C”, or “D”. “A” represents a fold-change value of equal to or less than 1 (value≤1); “B” represents a fold-change value of more than 1 and equal to or less than 2 (1<value≤2); “C” represents a fold-change value of more than 2 and equal to or less than 3 (2<value≤3); and “D” represents a fold-change value of more than 3 (value>3).

[5] = target: T1, GSPT1 (Homo sapiens, UniProt P15170+Q96SW2); experiment: Western blot GSPT1 degradation assay in MV-4-11 cells; conditions: 1 μM, MV-4-11 cells, 6-8 hours
T1 construct: whole cell protein extracts were separated on 4-12% SDS-polyacrylamide gels; endogenous in cells; host or cells: MV-4-11
T1 sequence (P15170 whole entry): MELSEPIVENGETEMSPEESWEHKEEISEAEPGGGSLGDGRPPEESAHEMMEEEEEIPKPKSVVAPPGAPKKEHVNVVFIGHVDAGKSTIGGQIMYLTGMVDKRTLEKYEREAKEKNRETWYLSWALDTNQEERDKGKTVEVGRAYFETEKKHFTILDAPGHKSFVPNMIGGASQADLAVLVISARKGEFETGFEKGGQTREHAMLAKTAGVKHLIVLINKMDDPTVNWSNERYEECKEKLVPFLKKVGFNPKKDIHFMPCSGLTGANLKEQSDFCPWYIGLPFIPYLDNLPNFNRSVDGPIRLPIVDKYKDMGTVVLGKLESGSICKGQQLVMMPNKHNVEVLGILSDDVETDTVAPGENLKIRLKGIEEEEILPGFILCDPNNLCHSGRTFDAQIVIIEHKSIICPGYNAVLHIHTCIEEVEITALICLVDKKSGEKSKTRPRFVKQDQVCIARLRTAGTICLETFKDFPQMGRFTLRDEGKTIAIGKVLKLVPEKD
T1 sequence (Q96SW2 whole entry): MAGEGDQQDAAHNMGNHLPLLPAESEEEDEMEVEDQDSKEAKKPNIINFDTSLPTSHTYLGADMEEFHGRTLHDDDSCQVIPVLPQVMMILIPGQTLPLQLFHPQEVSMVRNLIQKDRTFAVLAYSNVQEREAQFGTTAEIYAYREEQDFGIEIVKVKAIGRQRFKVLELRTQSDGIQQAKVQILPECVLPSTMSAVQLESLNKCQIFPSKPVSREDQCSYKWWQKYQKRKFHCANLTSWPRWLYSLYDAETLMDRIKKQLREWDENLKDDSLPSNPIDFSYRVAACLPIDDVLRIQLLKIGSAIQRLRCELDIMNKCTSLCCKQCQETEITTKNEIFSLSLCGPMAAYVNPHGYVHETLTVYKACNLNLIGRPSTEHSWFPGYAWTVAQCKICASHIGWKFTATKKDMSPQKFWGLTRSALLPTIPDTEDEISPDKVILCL
T1 sequence (Q16531 whole entry partner): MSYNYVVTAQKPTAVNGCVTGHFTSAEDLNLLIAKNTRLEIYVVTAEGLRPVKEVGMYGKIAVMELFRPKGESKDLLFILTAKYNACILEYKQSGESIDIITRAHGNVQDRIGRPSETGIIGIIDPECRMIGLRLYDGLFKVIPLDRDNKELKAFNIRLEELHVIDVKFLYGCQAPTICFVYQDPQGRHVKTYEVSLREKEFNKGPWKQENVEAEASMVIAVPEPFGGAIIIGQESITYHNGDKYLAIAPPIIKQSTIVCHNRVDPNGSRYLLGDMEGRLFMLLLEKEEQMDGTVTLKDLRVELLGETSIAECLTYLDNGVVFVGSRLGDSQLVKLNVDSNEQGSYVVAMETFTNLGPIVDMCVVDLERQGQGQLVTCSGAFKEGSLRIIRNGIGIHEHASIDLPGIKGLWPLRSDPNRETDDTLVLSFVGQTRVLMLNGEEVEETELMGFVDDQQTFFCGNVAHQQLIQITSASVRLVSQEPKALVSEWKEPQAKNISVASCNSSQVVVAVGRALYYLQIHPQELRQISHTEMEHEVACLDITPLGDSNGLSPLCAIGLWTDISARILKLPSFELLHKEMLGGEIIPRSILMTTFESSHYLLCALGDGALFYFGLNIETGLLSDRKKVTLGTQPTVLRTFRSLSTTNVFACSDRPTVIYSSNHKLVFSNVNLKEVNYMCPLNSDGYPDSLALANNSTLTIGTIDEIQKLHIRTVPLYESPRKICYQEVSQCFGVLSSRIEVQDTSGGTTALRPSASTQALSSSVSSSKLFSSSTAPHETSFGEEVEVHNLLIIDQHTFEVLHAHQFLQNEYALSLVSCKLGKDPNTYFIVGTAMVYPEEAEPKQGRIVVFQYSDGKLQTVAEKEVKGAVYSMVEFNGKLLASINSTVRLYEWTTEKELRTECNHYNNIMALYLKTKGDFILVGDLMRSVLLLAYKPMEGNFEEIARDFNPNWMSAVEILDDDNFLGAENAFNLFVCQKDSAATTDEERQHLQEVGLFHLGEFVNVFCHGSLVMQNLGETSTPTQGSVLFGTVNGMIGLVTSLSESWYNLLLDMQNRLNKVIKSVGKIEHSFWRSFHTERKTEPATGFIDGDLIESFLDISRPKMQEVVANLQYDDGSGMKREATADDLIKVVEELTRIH
Protocol: (§2) MV-4-11 cells were grown in RPMI 1640 media supplemented with 10% fetal bovine serum, streptomycin and penicillin.
(§3) Cells were cultured at approximately 10^6 cells per mL and incubated in DMSO or the indicated compound for 6-8 hours. Whole cell extracts were prepared using RIPA buffer according to manufacturer's protocol (Pierce). Briefly, 3×10^6 cells were washed once in PBS, the cell pellets were resuspended in RIPA buffer and allowed to incubate for 15 minutes on ice. Cells debris was removed by centrifugation and the cleared whole cell lysates were transferred to new tubes for further analysis.
(§4) For Western blot analysis, whole cell protein extracts were separated on 4-12% SDS-polyacrylamide gels, transferred to nitrocellulose and probed with the indicated primary antibodies. Membranes were subsequently washed and probed with the appropriate IRDye secondary antibodies (LI-COR). The signal was detected using the Odyssey Imaging System (LI-COR).
(§5) The following antibodies were used in these studies: Anti-eRF3/GSPT1: Abcam, ab126090 (Cambridge, Mass.); Anti-Ikaros: Abcam, ab191394 (Cambridge, Mass.); Anti-CK1α: Abcam, ab108296 (Cambridge, Mass.); β-actin (8H10D10) mouse monoclonal antibody: Cell Signaling Technology, #3700 (Danvers, Mass.); IRDye 680RD Goat anti-rabbit antibody: LI-COR, 926-68071 (Lincoln, Nebr.); IRDye 800CW Goat anti-mouse antibody: LI-COR, 926-32210 (Lincoln, Nebr.).
(§6) In each of Tables 1-3, the % degradation values are reported as “A”, “B”, “C”, or “D.” “A” represents a % degradation value of less than 25% (value<25%); “B” represents a % degradation value of equal to or more than 25% and less than 50% (25%≤value<50%); “C” represents a % degradation value of equal to or more than 50% and less than 75% (50%≤value<75%); and “D” represents a % degradation value of equal to or more than 75% (value≥75%).

[6] = target: T2, IKAROS (Homo sapiens, UniProt Q13422+Q96SW2); experiment: Western blot IKAROS degradation assay in MV-4-11 cells; conditions: 6-8 hours
T2 construct: endogenous in cells; host or cells: MV-4-11
T2 sequence (Q13422 whole entry): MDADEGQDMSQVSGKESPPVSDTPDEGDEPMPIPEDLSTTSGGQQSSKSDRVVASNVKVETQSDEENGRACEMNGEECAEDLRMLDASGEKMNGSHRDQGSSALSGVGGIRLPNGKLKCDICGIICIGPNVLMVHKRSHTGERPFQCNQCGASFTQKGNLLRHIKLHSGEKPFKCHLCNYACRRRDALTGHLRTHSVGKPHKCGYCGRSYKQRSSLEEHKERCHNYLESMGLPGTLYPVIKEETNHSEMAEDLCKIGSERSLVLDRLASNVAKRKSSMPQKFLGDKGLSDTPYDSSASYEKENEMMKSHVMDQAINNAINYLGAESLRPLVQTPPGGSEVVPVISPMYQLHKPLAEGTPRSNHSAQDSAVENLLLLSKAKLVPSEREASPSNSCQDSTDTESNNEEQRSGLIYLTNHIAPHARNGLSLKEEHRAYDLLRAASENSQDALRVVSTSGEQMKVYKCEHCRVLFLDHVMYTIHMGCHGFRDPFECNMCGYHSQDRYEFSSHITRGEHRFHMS
T2 sequence (Q96SW2 whole entry): as the sequence (Q96SW2 whole entry) above
T2 sequence (Q16531 whole entry partner): as the sequence (Q16531 whole entry partner) above
Protocol: as §2, §3, §4, §5, §6

[7] = target: T3, CK1α (Homo sapiens, UniProt P48729+Q96SW2); experiment: Western blot CK1α degradation assay in MV-4-11 cells; conditions: 6-8 hours
T3 construct: endogenous in cells; host or cells: MV-4-11
T3 sequence (P48729 whole entry): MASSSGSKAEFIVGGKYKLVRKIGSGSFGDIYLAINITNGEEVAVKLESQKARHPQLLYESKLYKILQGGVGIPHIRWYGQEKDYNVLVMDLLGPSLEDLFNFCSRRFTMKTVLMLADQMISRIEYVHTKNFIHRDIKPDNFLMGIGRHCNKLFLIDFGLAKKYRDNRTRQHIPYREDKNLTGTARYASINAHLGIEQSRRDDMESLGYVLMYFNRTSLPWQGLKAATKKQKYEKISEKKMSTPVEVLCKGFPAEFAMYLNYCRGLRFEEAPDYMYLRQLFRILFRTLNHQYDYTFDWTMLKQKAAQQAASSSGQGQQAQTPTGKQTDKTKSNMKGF
T3 sequence (Q96SW2 whole entry): as the sequence (Q96SW2 whole entry) above
T3 sequence (Q16531 whole entry partner): as the sequence (Q16531 whole entry partner) above
Protocol: as §2, §3, §4, §5, §6

Row | SMILES | viability at 1 µM [1] | inhibition at 1 µM [2] | inhibition at 1 µM [3] | fold induction at 1 µM [4] | GSPT1 % Degradation at 1 μM [5] | IKAROS % Degradation at 1 μM [6] | CK1α % Degradation at 1 μM [7]
1 | Cc1ccc(NCC(=O)NCc2scc3c2CN(C2CCC(=O)NC2=O)C3=O)cc1Cl (centres unmarked) [Compound 2, 2-((3-chloro-4-methylphenyl)amino)-N-((5-(2,6-dioxopiperidin-3-yl)-4-oxo-5,6-dihydro-4H-thieno[3,4-c]pyrrol-1-yl)methyl)acetamide] | > 90% | > 75% | 50 to 75% | 1 to 2 | C (a % degradation value of equal to or more than 50% and less than 75% (50%≤value<75%)) | D (a % degradation value of equal to or more than 75% (value≥75%)) | –
2 | Cc1ccc(NCC(=O)NCc2scc3c2CN(C2CCC(=O)NC2=O)C3=O)cc1N(C)C (centres unmarked) [Compound 4, 2-((3-(dimethylamino)-4-methylphenyl)amino)-N-((5-(2,6-dioxopiperidin-3-yl)-4-oxo-5,6-dihydro-4H-thieno[3,4-c]pyrrol-1-yl)methyl)acetamide] | > 90% | 50 to 75% | 50 to 75% | 2 to 3 | B (a % degradation value of equal to or more than 25% and less than 50% (25%≤value<50%)) | B (a % degradation value of equal to or more than 25% and less than 50% (25%≤value<50%)) | –
3 | Cc1ccc(NCC(=O)NCc2cc3c(s2)CN(C2CCC(=O)NC2=O)C3=O)cc1Cl (centres unmarked) [Compound 6, 2-((3-chloro-4-methylphenyl)amino)-N-((5-(2,6-dioxopiperidin-3-yl)-4-oxo-5,6-dihydro-4H-thieno[2,3-c]pyrrol-2-yl)methyl)acetamide] | – | < 30% | < 30% | – | – | – | –
4 | Cc1ccc(NC(C)C(=O)NCc2scc3c2CN(C2CCC(=O)NC2=O)C3=O)cc1Cl (centres unmarked) [Compound 7, 2-((3-chloro-4-methylphenyl)amino)-N-((5-(2,6-dioxopiperidin-3-yl)-4-oxo-5,6-dihydro-4H-thieno[3,4-c]pyrrol-1-yl)methyl)propanamide] | – | > 75% | > 75% | 2 to 3 | – | – | –
5 | CN(C)c1ccc(NCC(=O)NCc2scc3c2CN(C2CCC(=O)NC2=O)C3=O)cc1Cl (centres unmarked) [Compound 8, 2-((3-chloro-4-(dimethylamino)phenyl)amino)-N-((5-(2,6-dioxopiperidin-3-yl)-4-oxo-5,6-dihydro-4H-thieno[3,4-c]pyrrol-1-yl)methyl)acetamide] | – | > 75% | > 75% | 1 to 2 | – | – | –
6 | O=C(CNc1ccc(CN2CCOCC2)cc1)NCc1scc2c1CN(C1CCC(=O)NC1=O)C2=O (centres unmarked) [Compound 9, N-((5-(2,6-dioxopiperidin-3-yl)-4-oxo-5,6-dihydro-4H-thieno[3,4-c]pyrrol-1-yl)methyl)-2-((4-(morpholinomethyl)phenyl)amino)acetamide] | – | 50 to 75% | 50 to 75% | 1 to 2 | – | – | –
7 | O=C(CNc1cccc(CN2CCOCC2)c1)NCc1scc2c1CN(C1CCC(=O)NC1=O)C2=O (centres unmarked) [Compound 11, N-((5-(2,6-dioxopiperidin-3-yl)-4-oxo-5,6-dihydro-4H-thieno[3,4-c]pyrrol-1-yl)methyl)-2-((3-(morpholinomethyl)phenyl)amino)acetamide] | < 40% | 30 to 50% | 30 to 50% | 1 to 2 | B (a % degradation value of equal to or more than 25% and less than 50% (25%≤value<50%)) | B (a % degradation value of equal to or more than 25% and less than 50% (25%≤value<50%)) | –
8 | Cc1ccc(NCC(=O)NCc2ccc3c(c2)CN([C@H]2CCCC(=O)NC2=O)C3=O)cc1Cl [Compound 12] | – | < 30% | < 30% | 1 to 2 | C (a % degradation value of equal to or more than 50% and less than 75% (50%≤value<75%)) | – | –
9 | Cc1ccc(NC(C)C(=O)NCc2ccc3c(c2)CN(C2CCC(=O)NC2=O)C3=O)cc1Cl (centres unmarked) [Compound 15, 2-((3-chloro-4-methylphenyl)amino)-N-((2-(2,6-dioxopiperidin-3-yl)-1-oxoisoindolin-5-yl)methyl)propanamide] | – | – | – | 1 to 2 | – | – | –
10 | Cc1ccc(NCC(=O)NCc2ccc3c(c2)C(=O)N(C2CCC(=O)NC2=O)C3=O)cc1Cl (centres unmarked) [Compound 19, 2-((3-chloro-4-methylphenyl)amino)-N-((2-(2,6-dioxopiperidin-3-yl)-1,3-dioxoisoindolin-5-yl)methyl)acetamide] | 60 to 90% | – | 30 to 50% | ≤ 1 | D (a % degradation value of equal to or more than 75% (value≥75%)) | B (a % degradation value of equal to or more than 25% and less than 50% (25%≤value<50%)) | –
11 | O=C(CNc1ccc(N2CCOCC2)c(Cl)c1)NCc1ccc2c(c1)CN(C1CCC(=O)NC1=O)C2=O (centres unmarked) [Compound 22, 2-((3-chloro-4-morpholinophenyl)amino)-N-((2-(2,6-dioxopiperidin-3-yl)-1-oxoisoindolin-5-yl)methyl)acetamide] | – | 50 to 75% | 50 to 75% | 2 to 3 | – | – | –
12 | Cc1cc(NCC(=O)NCc2ccc3c(c2)CN(C2CCC(=O)NC2=O)C3=O)ccc1N1CCOCC1 (centres unmarked) [Compound 23, N-((2-(2,6-dioxopiperidin-3-yl)-1-oxoisoindolin-5-yl)methyl)-2-((3-methyl-4-morpholinophenyl)amino)acetamide] | 40 to 60% | 30 to 50% | 30 to 50% | 1 to 2 | B (a % degradation value of equal to or more than 25% and less than 50% (25%≤value<50%)) | C (a % degradation value of equal to or more than 50% and less than 75% (50%≤value<75%)) | –
13 | CN(C)Cc1ccc(NCC(=O)NCc2ccc3c(c2)CN(C2CCC(=O)NC2=O)C3=O)cc1Cl (centres unmarked) [Compound 26] | – | – | – | – | C (a % degradation value of equal to or more than 50% and less than 75% (50%≤value<75%)) | – | C (a % degradation value of equal to or more than 50% and less than 75% (50%≤value<75%))
